Measurements from patent US5021595A, “Transition metal catalyst composition for olefin polymerization” (Exxon Chemical Patents Inc., priority 1990, dated 1991).
Where two headings read alike, the source gives them in different places.

Columns and labels:
[1] = Copolymerization of norbornene type monomers with ethylene/propylene in CFSTR; conditions: 30° C.
Procedure: Polymerization experiments were conducted in a continuous flow stirred tank reactor process wherein norbornene type monomers such as norbornene and 5-ethylidene-2-norbornene (ENB) are copolymerized employing the invention catalysts. The polymerization was conducted under the following conditions:
Ethyl aluminum sesquichloride:
Tetraethoxysilane at .208 gms/hr

[2] = Preparation of polyethylene (batch ethylene polymerization); conditions: 1 mmole catalyst, 5 mmoles ethyl aluminum sesquichloride, room temperature, 0.5 hrs
Procedure: In a 1.5 liter reaction vessel was introduced 800 ml of hexane. This was maintained at room temperature and ethylene was slowly bubbled in at the rate of 34 gms/hour. When the solution was saturated, 5 mmoles of Ethyl aluminum sesquichloride was added as a solution in hexane followed by a solution of 1 mmole of the transition metal catalyst compound dissolved in toluene. […] The polymerization was maintained for 0.5 hrs with constant monomer addition. At the end of the polymerization period, the polymerization was terminated by the addition of 5 ml of isopropanol and the polymer was recovered by filtration and dried to constant weight.

[3] = Ethylene/propylene copolymerization in tubular reactor (polymerization rate); conditions: for Effectiveness in polymerizing ethylene/propylene compared to VCl4 (in words): tubular reactor process; for Polymerization Rate (polymer made in the reactor): tubular reactor, 15° C. at the initial zone, adiabatic, premix 8 sec at 10° C. (Example 12) or -10° C. (all others)
Excerpt: The polymerization results are shown in Table II and are expressed/as polymer made in the reactor in gms per hour.

[4] = tubular reactor
[5] = Conversion of vanadium component into active catalyst (tubular reactor, premixing); conditions: premixing residence time 8 seconds, temperature varied to maximize conversion
Procedure: The vanadium component attains a maximum conversion to the active catalyst under certain premixing conditions determined by the concentrations of the vanadium and aluminum components and the residence time in the premixing zone and the reaction temperature. The experiment was conducted with identical concentrations of vanadium compound and the same molar ratio of aluminum to vanadium. The premixing experiment was run for the residence time of 8 seconds and the reaction temperature was varied to maximize the conversion of the vanadium component into the active catalyst.

[6] = Ethylene/propylene copolymerization in continuous flow stirred tank reactor (catalyst productivity); conditions: CFSTR, residence time 11 minutes
Procedure: A series of copolymers based on ethylene and propylene monomers were prepared in a continuous flow stirred tank reactor using the vanadium
The polymerization results as set forth in Table 1 are expressed as polymer made in the reactor in gms per hour.

[7] = Catalyst lifetime in isothermal tubular reactor polymerization, first order decay; conditions: isothermal 40° C.
[8] = tubular reactor systems, pre-mixing and aging, in some cases; cited from earlier work
[9] = Condition A: no norbornene monomer
[10] = Condition B: Norbornene at 10.3 gms/hr
[11] = Condition C: Norbornene at 20.6 gms/hr
[12] = Condition D: ENB at 12.4 gms/hr + Tetraethoxysilane at .208 gms/hr

CC(=O)C=C(C)[O][V]([Cl])[O]C(C)=CC(C)=O [Catalyst Code 2, Bis (2,4-pentanedionate) mono chloro vanadium (+3)]
Polymerization rate [1, 9]: 169 gms/hr
Polymerization rate [1, 10]: 164 gms/hr
Polymerization rate [1, 11]: 159 gms/hr
Polymerization rate [1, 12]: 152 gms/hr
Wt of PE [2]: 14.3 GMS
Effectiveness in polymerizing ethylene/propylene compared to VCl4 (in words) [3]: significantly more effective than VCL4 in polymerizing ethylene/propylene monomers
Polymerization Rate (polymer made in the reactor) [3]: 878 gms per hour
Half-Life at 40° C. [4]: 11.6 s
Catalyst Conv % (percentage of vanadium converted to the active catalyst at maximum) [5]: 72%
Catalyst Productivity at Specified Temperature (polymer made in the reactor) ([6]; 30° C.): 92 gms per hour
Catalyst Productivity at Specified Temperature (polymer made in the reactor) ([6]; 45° C.): 64 gms per hour
Catalyst Productivity at Specified Temperature (polymer made in the reactor) ([6]; 60° C.): 51 gms per hour

CC(=O)C=C(C)[O-].CCCCCC(=O)[O-].[Cl-].[V+3] [Catalyst Code 3, Hexanoate (2,4-Pentanedionate) mono chloro vanadium (+3)]
Polymerization rate [1, 9]: 165 gms/hr
Polymerization rate [1, 10]: 178 gms/hr
Polymerization rate [1, 11]: 164 gms/hr
Polymerization rate [1, 12]: 165 gms/hr
Wt of PE [2]: 15.0 GMS
Effectiveness in polymerizing ethylene/propylene compared to VCl4 (in words) [3]: significantly more effective than VCL4 in polymerizing ethylene/propylene monomers
Polymerization Rate (polymer made in the reactor) [3]: 891 gms per hour
Half-Life at 40° C. [7]: 13.8 s
Catalyst Conv % (percentage of vanadium converted to the active catalyst at maximum) [5]: 75%
Catalyst Productivity at Specified Temperature (polymer made in the reactor) ([6]; 30° C.): 87 gms per hour
Catalyst Productivity at Specified Temperature (polymer made in the reactor) ([6]; 45° C.): 64 gms per hour
Catalyst Productivity at Specified Temperature (polymer made in the reactor) ([6]; 60° C.): 51 gms per hour

Bis hexanoate mono chloro titanium [Catalyst Code 5]
Wt of PE [2]: 13.5 GMS

Bis hexanoate mono chloro vanadium (+3) [Catalyst Code 1]
Polymerization rate [1, 9]: 171 gms/hr
Polymerization rate [1, 10]: 171 gms/hr
Polymerization rate [1, 11]: 168 gms/hr
Polymerization rate [1, 12]: 160 gms/hr
Wt of PE [2]: 13.9 GMS
Effectiveness in polymerizing ethylene/propylene compared to VCl4 (in words) [3]: significantly more effective than VCL4 in polymerizing ethylene/propylene monomers
Polymerization Rate (polymer made in the reactor) [3]: 832 gms per hour
Half-Life at 40° C. [7]: 19.8 s
Catalyst Conv % (percentage of vanadium converted to the active catalyst at maximum) [5]: 67%
Catalyst Productivity at Specified Temperature (polymer made in the reactor) ([6]; 30° C.): 95 gms per hour
Catalyst Productivity at Specified Temperature (polymer made in the reactor) ([6]; 45° C.): 68 gms per hour
Catalyst Productivity at Specified Temperature (polymer made in the reactor) ([6]; 60° C.): 58 gms per hour

Hexanoate Salicaldehyde mono chloro vanadium (+3) [Catalyst Code 4]
Wt of PE [2]: 15.0 GMS
Half-Life at 40° C. [7]: 10.0 s
Catalyst Productivity at Specified Temperature (polymer made in the reactor) ([6]; 30° C.): 90 gms per hour
Catalyst Productivity at Specified Temperature (polymer made in the reactor) ([6]; 45° C.): 73 gms per hour
Catalyst Productivity at Specified Temperature (polymer made in the reactor) ([6]; 60° C.): 56 gms per hour

Tetra chloro vanadium (+4) [Catalyst Code 0, reference compound]
Deactivation of catalyst formed, based on the moles of the initial vanadium compound added [8]: up to 55 mole percent
Half-Life at 40° C. [7]: 2.5 s
